Legend:
Botrytis cinerea = test: Botrytis bunch rot percent disease incidence and severity, 2022 field trial (Example 4); format: in vivo
Procedure: Similar to Example 3 above, additional field trials were conducted in 2022 to investigate the efficacy of MDJ in preventing bunch rot (Botrytis cinerea). The objective of this trial was to evaluate the fungicidal efficacy of MDJ at 32 oz and 48 oz/A against Botrytis cinerea on wine grapes. Serenade® Opti at 16 oz/A was included for comparative purposes. Pro 90 a NIS with anti-foaming agent was included with each treatment at 2 oz/100 gal. The trial was conducted on 21-year-old Carignane grapes (Vitis vinifera).
The first of three foliar applications was initiated June 22nd (prior to veraison) followed a month later (July 21st when fruit was at early (5 to 10%) veraison, then at 40% veraison on August 1st. Applications were made using a backpack mistblower based on a spray volume of 80 gallons per acre. As a separate control of Erysiphe necator (powdery mildew), a maintenance fungicide program of two applications in June of fenarimol (4 oz/A) followed by two applications of fenarimol+Quintec (6 oz/A) at 2 week intervals was applied.
Temperatures throughout the trial ranged from highs of 89 to 104 degrees and lows of 50 to 66 degrees F. All treatments provided good crop safety with no phytotoxicity observed. Assessments were based on visual observation of the percent disease incidence and severity at each evaluation.

[1] = system: Black seedless grapes (Vitis labrusca); test: Fruit Brix and titratable acid, black seedless grapes (Example 5); format: in vivo; details: for Fruit BRIX / Titratable Acid, fruit: ABCDE; for Fruit BRIX: Aug. 11, 2022; for Titratable Acid, fruit: Sep. 8, 2022
Procedure: (§1) Field trials were conducted in California 2022 (a dry year) to investigate the efficacy of MDJ in preventing Sour Rot caused by Aspergillus carbonarius (also known as summer bunch rot, abbreviated ASPECA in Table 7). Black seedless grapes (Vitis labrusca) were used in this trial. Four vines were used per plot. The plots were arranged in a randomized complete block design with six replicates (plots) per treatment. The plots were sprayed five times (ABCDE) at a rate of 500 gal/AC.
Treatments consisted of MDJ at 32 oz and 48 oz/A. A treatment of Regalia® at 1.5 qt/100 gal and Stargus® at 2 qt/100 gal was included for comparative purposes. Application D occurred at 5-10% veraison. Application E occurred at 40% veraison.
A randomly selected sample of approximately twenty wine grapes was used to evaluate the Brix and titratable acid. Another randomly selected sample (>500 g) was shipped to ETS Laboratories (Paso Robles, CA) for a red grape panel analysis (catechin, quercetin glycosides, tannin, polymeric anthocyanins, total anthocyanins, catechin/tannin index, and polymeric anthocyanins/tannin index). […] Total anthocyanins increased over 17% (449.1 in untreated controls compared to 529.3 in the group treated with 48 oz/A MDJ). An increase in quercetin glycosides, tannin, and polymeric anthocyanins, was also observed in MDJ treated plants (Table 8), as well as titratable acid (Table 9).

[2] = system: Kyoho grapes (Vitis vinifera×Vitis labrusca); test: Cluster weight, grape weight, diameter, grapes per cluster, pH and Brix in Kyoho grapes (Example 6); format: in vivo; details: for Average Brix (FRUIT, BRIX) / Average diameter (FRUIT, DIAMET) / Average fruit per cluster (CLUSTR, COUNT) / Individual grape weight (FRUIT, WEIGHT) / pH (FRUIT, PH) / Average Weight of cluster: applications ABCD; for Average Brix (FRUIT, BRIX) / Average diameter (FRUIT, DIAMET) / Average fruit per cluster (CLUSTR, COUNT) / Individual grape weight (FRUIT, WEIGHT): rated Aug. 17, 2022; for pH (FRUIT, PH): rated Aug. 17, 2022, scale 0-14
Procedure: as §1, with “10). Kyoho” for “7). Black seedless”, “(Vitis vinifera×Vitis” for “(Vitis”, “Three” for “Four”, “treatment (24 plots total).” for “treatment.”, “four” for “five”, “(ABCD)” for “(ABCDE)”
Treatments consisted of MDJ at 32 oz and 48 oz/A. A treatment of Regalia® at 1.5 qt/100 gal and Stargus® at 2 qt/100 gal was included for comparative purposes.

Malbec wine grape juice = test: Key metabolites in wine grape juice by HPLC with UV detection (Example 2); format: in vivo, Vitis vinifera
Procedure: 200 grapes were randomly selected from the MDJ treated group and control group of the study described above in Example 1. Samples were pooled from each group and juice was prepared for winemaking used standard practices. The juice was analyzed for several key metabolites important for wine making (Table 6). All samples were run on Agilent HPLC with UV detection for the compounds listed below. Between 50 μL-100 μL was injected into the machine per sample.

[3] = Malbec MDJ treated (2.5 mM, Example 1 trial), pooled 200 grapes

CCCCCC1C(=O)CCC1CC(=O)OC (stereo not shown) [MDJ, methyl dihydrojasmonate] was tested, and the “Control of Botrytis incidence and severity, higher vs lower rate” value (Botrytis cinerea; Carignane wine grapes, higher rate of MDJ (48 oz/A)) was “numerically better control of Botrytis incidence and severity”, the “B. cinerea suppression (disease incidence) vs untreated grapes” value (Botrytis cinerea; MDJ Elicitor at both rates (32 and 48 oz/A), 26DAC, 20 bunches per plot) was “significantly better B. cinerea suppression” and the “Control of Botrytis, higher vs lower rate” value (Botrytis cinerea; higher rate of MDJ (48 oz/A), 7 and 14 days after the third treatment (7 and 14DAC)) was “significantly better control”. The “Control of Botrytis incidence compared to the Serenade Opti standard” value (Botrytis cinerea; low rate of MDJ (32 oz/A), 26DAC) was “significantly better control of Botrytis incidence”, the “Fruit BRIX” value ([1]; 32 oz/a) was 19.080— % and the “Titratable Acid, fruit” value ([1]; 32 oz/a) was 5.83— g/L. For the same molecule, the “Fruit BRIX” value ([1]; 48 oz/a) was 19.560— %, the “Titratable Acid, fruit” value ([1]; 48 oz/a) was 6.67— g/L and the “Fruit Brix vs untreated” value ([1]; MDJ treated plants) was “increase”. For the same molecule, the “Titratable acid vs untreated” value ([1]; MDJ treated plants) was “increase”, the “Average Brix (FRUIT, BRIX)” value ([2]; 32 oz/a) was 20.73% and the “Average diameter (FRUIT, DIAMET)” value ([2]; 32 oz/a) was 23.778 mm. The “Average fruit per cluster (CLUSTR, COUNT)” value ([2]; 32 oz/a) was 32.5 number, the “Individual grape weight (FRUIT, WEIGHT)” value ([2]; 32 oz/a) was 7.277 g and the “pH (FRUIT, PH)” value ([2]; 32 oz/a) was 4.0. For the same molecule, the “Average Brix (FRUIT, BRIX)” value ([2]; 48 oz/a) was 20.17%, the “Average diameter (FRUIT, DIAMET)” value ([2]; 48 oz/a) was 23.917 mm and the “Average fruit per cluster (CLUSTR, COUNT)” value ([2]; 48 oz/a) was 34.3 number. The “Individual grape weight (FRUIT, WEIGHT)” value ([2]; 48 oz/a) was 7.232 g, the “pH (FRUIT, PH)” value ([2]; 48 oz/a) was 4.0 and the “Average Weight of cluster” value ([2]; Aug. 17, 2022, 32 oz/a) was 234.287a g. For the same molecule, the “Average Weight of cluster” value ([2]; Aug. 17, 2022, 48 oz/a) was 246.350a g, the “Diameter of individual grapes” value ([2]; MDJ treatment) was “did not significantly affect” and the “Weight of individual grapes” value ([2]; MDJ treatment) was “did not significantly affect”. The “pH of individual grapes” value ([2]; MDJ treatment) was “did not significantly affect”, the “Grapes per cluster vs standard control (Regalia and Stargus)” value ([2]; both rates of MDJ (32 and 48 oz/A)) was “significantly more grapes per cluster” and the “Brix level compared to other treatments” value ([2]; higher rate of MDJ (48 oz/A)) was “statistically reduced the Brix level”. For the same molecule, the “Catechin in wine grape juice” value (Malbec wine grape juice; [3]) was 28 mg/L, the “Polymeric anthocyanins in wine grape juice” value (Malbec wine grape juice; [3]) was 24 mg/L and the “Quercetin glycosides in wine grape juice” value (Malbec wine grape juice; [3]) was 23 mg/L. The “Tannin in wine grape juice” value (Malbec wine grape juice; [3]) was 393 mg/L, the “Total anthocyanins in wine grape juice” value (Malbec wine grape juice; [3]) was 1697 mg/L and the “Increase of total anthocyanins vs control” value (Malbec wine grape juice; Malbec wine grape juice, MDJ treatment group) was “approximately 8%”. The “Color of grape wine juice vs control group” value (Malbec wine grape juice; Malbec, MDJ treatment group, FIG. 2) was “richer, darker red color”.

Source: patent US20250120399A1, “METHODS AND COMPOSITIONS FOR ALTERING METABOLITES IN VITIS SPP. AND PREVENTING PESTS AND PATHOGENS” (Impello Biosciences, Inc., priority 2022, published 2025)
